# Experimental data taken from PubChem BioAssay AID248 (DTP/NCI, 2004).
# Several values for one entry are separate records, joined by “and”; a condition that tells them apart may be missing. Identical values can stand only once. Toxic doses and inconclusive results are not listed.
# Test system: L1210 leukemia ip in BDF1 mice, survival T/C
# Assay: NCI In Vivo Anticancer Drug Screen. Data for tumor model L1210 Leukemia (intraperitoneal) in B6D2F1 (BDF1) mice
# Conditions: endpoint: mean survival time, higher = longer survival
# Method in brief: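 Each compound was tested against a transplantable tumor grown in mice. The endpoint was survival, with treated animals benchmarked against vehicle controls as a simple ratio.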
# [1] = dose: 100.0 mg/kg/injection, schedule: Q04DX003 (ip), vehicle: saline with Tween-80
# [2] = dose: 200.0 mg/kg/injection, schedule: Q04DX003 (ip), vehicle: saline with Tween-80
# [3] = dose: 400.0 mg/kg/injection, schedule: Q04DX003 (ip), vehicle: saline with Tween-80
# [4] = dose: 100.0 mg/kg/injection, schedule: Q04DX003 (ip), vehicle: Klucel (hydroxypropylcellulose) (HPC)
# [5] = dose: 200.0 mg/kg/injection, schedule: Q04DX003 (ip), vehicle: Klucel (hydroxypropylcellulose) (HPC)
# [6] = dose: 400.0 mg/kg/injection, schedule: Q04DX003 (ip), vehicle: Klucel (hydroxypropylcellulose) (HPC)
# [7] = dose: 100.0 mg/kg/injection, schedule: Q01DX001 (ip), vehicle: Klucel (hydroxypropylcellulose) (HPC)
# [8] = dose: 100.0 mg/kg/injection, schedule: Q01DX009 (ip), vehicle: Klucel (hydroxypropylcellulose) (HPC)
# [9] = dose: 200.0 mg/kg/injection, schedule: Q01DX001 (ip), vehicle: Klucel (hydroxypropylcellulose) (HPC)
# [10] = dose: 200.0 mg/kg/injection, schedule: Q01DX009 (ip), vehicle: Klucel (hydroxypropylcellulose) (HPC)
# [11] = dose: 400.0 mg/kg/injection, schedule: Q01DX001 (ip), vehicle: Klucel (hydroxypropylcellulose) (HPC)
# [12] = dose: 400.0 mg/kg/injection, schedule: Q01DX009 (ip), vehicle: Klucel (hydroxypropylcellulose) (HPC)
# [13] = dose: 100.0 mg/kg/injection, schedule: Q04DX002 (ip), vehicle: Klucel (hydroxypropylcellulose) (HPC)
# [14] = dose: 200.0 mg/kg/injection, schedule: Q04DX002 (ip), vehicle: Klucel (hydroxypropylcellulose) (HPC)
# [15] = dose: 400.0 mg/kg/injection, schedule: Q04DX002 (ip), vehicle: Klucel (hydroxypropylcellulose) (HPC)
# [16] = dose: 100.0 mg/kg/injection, schedule: Q01DX001 (ip), vehicle: other
# [17] = dose: 200.0 mg/kg/injection, schedule: Q01DX001 (ip), vehicle: other
# [18] = dose: 400.0 mg/kg/injection, schedule: Q01DX001 (ip), vehicle: other
# [19] = dose: 100.0 mg/kg/injection, schedule: Q04DX002 (ip), vehicle: saline with Tween-80
# [20] = dose: 200.0 mg/kg/injection, schedule: Q04DX002 (ip), vehicle: saline with Tween-80
# [21] = dose: 400.0 mg/kg/injection, schedule: Q04DX002 (ip), vehicle: saline with Tween-80
compound,measurement,setting,value
COc1ccc(/C=C(C)/C=N/NC(=O)c2ccncc2)cc1OC,T/C,[1],98 % of control
same,T/C,[2],97 % of control
same,T/C,[3],103 % of control
Cc1cc(P(=O)(O)O)ccc1[N+](=O)[O-],T/C,"dose: 75.0 mg/kg/injection, schedule: Q01DX001 (ip), vehicle: saline",95 % of control
same,T/C,"dose: 150.0 mg/kg/injection, schedule: Q01DX001 (ip), vehicle: saline",88 % of control
same,T/C,"dose: 300.0 mg/kg/injection, schedule: Q01DX001 (ip), vehicle: saline",96 % of control
COc1cc(I)cc(OC)c1OC,T/C,[1],97 % of control
same,T/C,[2],94 % of control
same,T/C,[3],100 % of control
O=C(CCN1C(=O)c2ccccc2C1=O)c1ccc(O)cc1,T/C,"dose: 6.25 mg/kg/injection, schedule: Q01DX009 (ip), vehicle: saline with Tween-80",97 % of control
same,T/C,"dose: 12.5 mg/kg/injection, schedule: Q01DX009 (ip), vehicle: saline with Tween-80",98 % of control
same,T/C,"dose: 25.0 mg/kg/injection, schedule: Q01DX009 (ip), vehicle: saline with Tween-80",91 % of control
COC1c2ccccc2C=CN1c1ccc([N+](=O)[O-])cc1[N+](=O)[O-] (configuration not stated),T/C,[4],110 % of control
same,T/C,[5],104 % of control
same,T/C,[6],108 % of control
O=C(c1ccc(Cl)cc1)c1nonc1C(=O)c1ccc(Cl)cc1,T/C,[7],100 % of control
same,T/C,[8],98 % of control
same,T/C,[9],96 % of control
same,T/C,[10],95 % of control
same,T/C,[11],100 % of control
same,T/C,[12],106 % of control
CC(C)NC(=O)N(c1ccccc1)C(C)C,T/C,[1],98 % of control
same,T/C,[2],89 % of control
same,T/C,[3],89 % of control
O=C(CCNNC(=O)c1ccncc1)NCc1ccccc1,T/C,"dose: 25.0 mg/kg/injection, schedule: Q01DX009 (ip), vehicle: Klucel (hydroxypropylcellulose) (HPC)",101 % of control
same,T/C,"dose: 25.0 mg/kg/injection, schedule: Q04DX003 (ip), vehicle: Klucel (hydroxypropylcellulose) (HPC)",101 % of control
same,T/C,"dose: 50.0 mg/kg/injection, schedule: Q01DX009 (ip), vehicle: Klucel (hydroxypropylcellulose) (HPC)",110 % of control
same,T/C,"dose: 50.0 mg/kg/injection, schedule: Q04DX003 (ip), vehicle: Klucel (hydroxypropylcellulose) (HPC)",114 % of control
same,T/C,[8],97 % of control
same,T/C,[4],95 % of control
same,T/C,[10],101 % of control
same,T/C,[5],86 % of control
same,T/C,[12],101 % of control
same,T/C,[6],95 % of control
O=C1NC2C3CCC(C3)C12 (configuration not stated),T/C,"dose: 10.0 mg/kg/injection, schedule: Q04DX002 (ip), vehicle: saline",90 % of control
same,T/C,"dose: 20.0 mg/kg/injection, schedule: Q04DX002 (ip), vehicle: saline",107 % of control
same,T/C,"dose: 40.0 mg/kg/injection, schedule: Q04DX002 (ip), vehicle: saline",93 % of control
C=CCc1ccc(OC(=O)Nc2cccc3ccccc23)c(OC)c1,T/C,[13],96 % of control
same,T/C,[14],124 % of control
same,T/C,[15],93 % of control
N#C/C(=C1/C(=O)c2ccccc2-c2c1cccc2[N+](=O)[O-])c1ccccc1,T/C,"dose: 75.0 mg/kg/injection, schedule: Q01DX001 (ip), vehicle: carboxymethylcellulose (CMC)",92 % of control
same,T/C,"dose: 150.0 mg/kg/injection, schedule: Q01DX001 (ip), vehicle: carboxymethylcellulose (CMC)",94 % of control
same,T/C,"dose: 300.0 mg/kg/injection, schedule: Q01DX001 (ip), vehicle: carboxymethylcellulose (CMC)",97 % of control
O=S1(=O)c2ccccc2Oc2ccccc21,T/C,"dose: 50.0 mg/kg/injection, schedule: Q01DX001 (ip), vehicle: other",93 % of control
same,T/C,[16],93 % of control
same,T/C,[17],100 % of control
same,T/C,[18],96 % of control
CSc1nc(/N=N/Nc2nc(SC)nn2C)n(C)n1,T/C,[19],93 % of control
same,T/C,[20],93 % of control
same,T/C,[21],97 % of control
Cc1cc(C)c(Sc2ccc([N+](=O)[O-])c3ccccc23)c(C)c1,T/C,[7],102 % of control
same,T/C,[4],94 % of control
same,T/C,[9],98 % of control
same,T/C,[5],100 % of control
same,T/C,[11],95 % of control
same,T/C,[6],90 % of control
CCOC(=O)c1cc2ccccc2[nH]1,T/C,"dose: 50.0 mg/kg/injection, schedule: Q01DX001 (ip), vehicle: Klucel (hydroxypropylcellulose) (HPC)",93 % of control
same,T/C,[7],98 % of control
same,T/C,[19],97 % of control
same,T/C,[9],93 % of control
same,T/C,[20],87 % of control
same,T/C,[21],97 % of control
CC(C)(c1ccsc1)c1sccc1C(=O)O,T/C,[1],100 % of control
same,T/C,[2],87 % of control
same,T/C,[3],87 % of control
O=C(O)C(Cc1ccccc1)NS(=O)(=O)Cc1ccccc1 (configuration not stated),T/C,[16],100 % of control
same,T/C,"dose: 100.0 mg/kg/injection, schedule: Q04DX003 (ip), vehicle: other",96 % of control
same,T/C,[17],102 % of control
same,T/C,"dose: 200.0 mg/kg/injection, schedule: Q04DX003 (ip), vehicle: other",93 % of control
same,T/C,[18],100 % of control
same,T/C,"dose: 400.0 mg/kg/injection, schedule: Q04DX003 (ip), vehicle: other",93 % of control
O=Cc1occ(-c2ccccc2)c1-c1ccccc1,T/C,[4],94 % of control
same,T/C,[5],97 % of control
same,T/C,[6],98 % of control
Cc1ccc(S/C(=C/c2ccccc2)C(N)=O)cc1,T/C,[5],93 % of control
same,T/C,[6],95 % of control
Nc1nc(=S)c2ncn(C3OC(COC(=O)c4ccccc4)C(OC(=O)c4ccccc4)C3OC(=O)c3ccccc3)c2[nH]1 (configuration not stated),T/C,"dose: 0.1 mg/kg/injection, schedule: Q01DX009 (ip), vehicle: saline",104 % of control
same,T/C,"dose: 0.3 mg/kg/injection, schedule: Q01DX009 (ip), vehicle: saline",118 % of control
same,T/C,"dose: 0.6 mg/kg/injection, schedule: Q01DX009 (ip), vehicle: saline",118 % of control
same,T/C,"dose: 5.0 mg/kg/injection, schedule: Q01DX009 (ip), vehicle: saline",159 % of control
same,T/C,"dose: 29.0 mg/kg/injection, schedule: Q01DX Z (ip), vehicle: methylcellulose (MC)",116 % of control
same,T/C,"dose: 45.0 mg/kg/injection, schedule: Q01DX009 (ip), vehicle: saline",164 % of control
same,T/C,"dose: 100.0 mg/kg/injection, schedule: Q01DX Z (ip), vehicle: methylcellulose (MC)",153 % of control
same,T/C,"dose: 175.0 mg/kg/injection, schedule: Q01DX009 (ip), vehicle: saline",98 % of control
same,T/C,"dose: 265.0 mg/kg/injection, schedule: Q01DX001 (ip), vehicle: saline",118 % of control
same,T/C,"dose: 400.0 mg/kg/injection, schedule: Q01DX001 (ip), vehicle: saline",86 % of control
NC(=O)c1ccn(C2OC(CO)C(O)C2O)n1 (configuration not stated),T/C,"dose: 50.0 mg/kg/injection, schedule: Q01DX005 (ip), vehicle: water",105 % of control
same,T/C,"dose: 100.0 mg/kg/injection, schedule: Q01DX005 (ip), vehicle: water",102 % of control
same,T/C,"dose: 200.0 mg/kg/injection, schedule: Q01DX005 (ip), vehicle: water",102 % of control
Cc1[nH]ncc1Br,T/C,[1],98 % of control
same,T/C,[2],92 % of control
same,T/C,[3],103 % of control
Cc1ccc(CCCC(=O)O)c(C)c1,T/C,"dose: 100.0 mg/kg/injection, schedule: Q01DX009 (ip), vehicle: saline with Tween-80",105 % of control
same,T/C,"dose: 200.0 mg/kg/injection, schedule: Q01DX009 (ip), vehicle: saline with Tween-80",92 % of control
same,T/C,"dose: 400.0 mg/kg/injection, schedule: Q01DX009 (ip), vehicle: saline with Tween-80",96 % of control
CC[N+](C)(CC)CCOc1cc(C)ccc1C(C)C,T/C,"dose: 25.0 mg/kg/injection, schedule: Q04DX003 (ip), vehicle: saline",104 % of control
same,T/C,"dose: 50.0 mg/kg/injection, schedule: Q04DX003 (ip), vehicle: saline",98 % of control
same,T/C,"dose: 100.0 mg/kg/injection, schedule: Q04DX003 (ip), vehicle: saline",93 % of control and 98 % of control
O=C(O)Cc1ccc(Cl)c2ccccc12,T/C,[13],101 % of control
same,T/C,[14],104 % of control
same,T/C,[15],107 % of control
O=C(Nc1ccccc1)OCC#CCOC(=O)Nc1ccccc1,T/C,[8],97 % of control
same,T/C,[10],90 % of control
same,T/C,[12],100 % of control
O=C(Nc1cccc(C(=O)O)c1)Nc1cccc(Cl)c1Cl,T/C,[8],98 % of control
same,T/C,[10],95 % of control
same,T/C,[12],105 % of control
